How the values were obtained:
[1] = system: human endothelial cells (HUVEC cells); assay: In-vitro inhibition of the interleukin-2 (Proleukin) induced VLS: spherical deformation of HUVEC cells; type: cell-based; conditions: Proleukin in combination with 20 mM of substance, microscopic assessment after 4 to 6 days
Procedure: In-vitro examinations on the inhibition of the VLS induced by interleukin-2. Using human endothelial cells (HUVEC cells) the inhibition of the IL-2 induced VLS through ectoine and hydroxyectoine was investigated in an in-vitro system. In this context the concentrations of Proleukin® (by Chiron) were determined that lead to the spherical deformation of the HUVEC cells. The spherical deformation of HUVEC cells is considered as a sign for the triggering of the VLS, cf. Baluna et al., PNAS 3957-3962, March 1999. Same as VLS, this phenotype visible under the light microscope is based on the bonding of membrane proteins, the integrins. The cells were incubated with Proleukin solely or in combination with ectoine and hydroxyectoine. To verify the specificity of the compatible solutes also trehalose and glucose were employed additionally. After 4 to 6 days the proportion of normal and spherically deformed cells of a visual field are determined by microscopic assessment.

[2] = system: NK cells and T cells of healthy-blood donors; assay: Proleukin-induced interferon-γ synthesis of human lymphocytes (ELISA of supernatant); type: cell-based; conditions: 250 U Proleukin in combination with 20 mM hydroxyectoine, 48 hours, FIG. 2
Description: Effects of hydroxyectoine on the Proleukin-induced interferon-γ-synthesis of human lymphocytes.
interleukin-2, IL-2, same as Proleukin leads to the activation of immune effector cells which can be determined, inter alia, by an increased interferon-γ secretion of NK cells and T-lymphocytes.
For this purpose NK cells and T cells of healthy-blood donors were isolated by means of the MACS technique (Magnetic Cell Sorting, Milteniy). The of detection of the cells expressing the surface markers CE 56, NKG2D and CD 3 was brought about by FACS analyses.
The cells without further additives have been incubated for 48 hours with 250 U Proleukin or with 250 U Proleukin in combination with 20 mM hydroxyectoine. Following this, the concentration of interferon-γ was determined in the supernatant of the cells with the aid of ELISA (triple determinations from two independent experiments).

SMILES | reduction of the Proleukin-induced VLS phenotype (spherically deformed HUVEC cells; VLS inhibition percentage, FIG. 1) [1] | inhibition of the induction of interferon-γ synthesis (concentration of interferon-γ in the supernatant) [2]
CC1=N[C@H](C(=O)O)CCN1 [ectoine, (4S)-2-methyl-1,4,5,6-tetrahydropyrimidine-4-carboxylic acid] | significantly reduce the VLS phenotype | –
CC1=N[C@H](C(=O)O)[C@@H](O)CN1 [hydroxyectoine, (4S,5S)-5-hydroxy-2-methyl-1,4,5,6-tetrahydropyrimidine-4-carboxylic acid] | significantly reduce the VLS phenotype | does not inhibit the induction of the interferon-γ synthesis, on the contrary slightly increased values were found

— patent US20100048900A1, “AGENT FOR TREATMENT OF VASCULAR LEAKS” (priority 2006, published 2010)
